# Measurements taken from EP0509845A1, “(+) and (-) enantiomers of 5-aliphatic-6-(benzoxazinyl- or benzothiazinyl)-2,3,4,5-tetrahydropyridazin-3-ones” (ORTHO PHARMACEUTICAL CORPORATION, priority 1991, dated 1992).
# System: adult mongrel dogs
# Assay: Comparative racemate and enantiomer hemodynamic testing in pentobarbital anesthetized open-chest dogs
# Type: in vivo
# Conditions: for In vivo inotropic ED40, i.v.: Table I summary, dose increasing contractile force by 40%; for In vivo inotropic ED40, i.v. / CF ED40 (µg/kg) with 95% F.L.: dogs; for CO Percent Change from Control: cardiac output; for CO Percent Change from Control / CF Percent Change from Control / HR Percent Change from Control / LVEDP Percent Change from Control / MAP Percent Change from Control / dP/dtmax Percent Change from Control / RAP Percent Change from Control / SV Percent Change from Control / SW Percent Change from Control / TPR Percent Change from Control: anesthetized open-chest dogs; for CF Percent Change from Control: contractile force; for CF ED40 (µg/kg) with 95% F.L.: dose causing a 40% increase in contractility above baseline, from dose-response regression lines, i.v. infusion; for HR Percent Change from Control: heart rate; for LVEDP Percent Change from Control: left ventricular end diastolic pressure; for MAP Percent Change from Control: mean blood pressure; for dP/dtmax Percent Change from Control: peak rate of rise in left ventricular pressure; for RAP Percent Change from Control: right atrial pressure; for SV Percent Change from Control: stroke volume (CO/HR x 1000); for SW Percent Change from Control: stroke work; for TPR Percent Change from Control: total peripheral resistance
# Experimental: Adult mongrel dogs weighing approximately l0-l4 kg were anesthetized with sodium pentobarbital (35 mg/kg, i.p.) and artificially respired. A femoral artery was cannulated to measure mean arterial pressure (MAP) and a femoral vein was cannulated for administering compounds. A Millar microtip pressure transducer was placed in the left ventricle via the left carotid artery to measure left ventricular end diastolic pressure (EDP). pressure pulses triggered a cardiotachometer for determination of heart rate (HR) while the left ventricular pressure waveform was differentiated using a Gould differentiating amplifier to yield dP/dtmax, an index of contractility. A right thoractomy was performed at the fourth intercostal space and the pericardial sac was opened. An externally calibrated Walton-Brodie strain gauge arch was sutured to the right ventricular free wall and stretched to produce a baseline force of approximately l00g. Subsequent changes in right ventricular contractile force (CF) were measured from this baseline. A Carolina electromagnetic flow probe was placed on the ascending aorta to estimate cardiac output (CO). A flexible fluid-filled catheter was inserted into the tip of the right atrium to measure right atrial pressure (RAP). Needle electrodes were placed in the appropriate limbs to record a lead II electrocardiogram (ECG). The following formulas were used to calculate derived parameters: Stroke volume (SV) = CO/HR x l000 Stroke work (SW) = ([…]) x SV Total peripheral resistance (TPR) = (MAP-EDP)/CO
# Following surgery and stabilization of hemodynamic parameters, an i.v. infusion of dopamine (l0-l5 µg/kg/min for 3 min) was administered with a Harvard infusion pump to assess responsiveness to positive inotropic stimulation. Baseline hemodynamic values were obtained immediately prior to drug infusion. Responses were continuously monitored on a recorder (Gould 2800) and data collection was facilitated by the use of a Buxco cardiovascular analyzer and data logger.
# In the comparative testing a stock solution of each enantiomer (l mg/ml) was prepared fresh daily and diluted before use. Compounds were dissolved in a small volume of dimethylformamide (DMF) and diluted with saline for a final concentration of l5% DMF. Further dilutions were made with a l5% DMF solution.
# In the comparative testing each compound was administered in cumulative doses to separate dogs. Data were obtained at the end of each dose. (±) Bemoradan and (+) Bemordan were infused at cumulative doses of 5, l5, 35 and 75 µg/kg, administered with a Harvard infusion pump for 5 minutes each at rates of 0.56, l.l, 2.2, and […], respectively. (-) Bemoradan was given at doses of 5, l5 and 35 µg/kg following the same protocol. The high dose of the (-) isomer was not administered as a means of conserving compound.
# Hemodynamic results were expressed as the percent change from pre-drug baseline values and compared using a Dunnett's test with a criterion for significance of p < 0.05. Contractile force ED₄₀ values (i.e., the dose which increased contractile force by 40%) were calculated from dose-response regression lines.
smiles,measurement,setting,value
"CC1CC(=O)NN=C1c1ccc2c(c1)OCC(=O)N2 (single isomer, unassigned; isomer 6) [(+) isomer, 6-(3,4-dihydro-3-oxo-l,4(2H)-benzoxazin-7-yl)-2,3,4,5-tetrahydro-5-methyl-pyridazin-3-one]","In vivo inotropic ED40, i.v.",,0.0423 mg/kg
same,CO Percent Change from Control,cumulative i.v. dose 5 µg/kg,2.0±1.4%
same,CO Percent Change from Control,cumulative i.v. dose 15 µg/kg,4.8±2.8%
same,CO Percent Change from Control,cumulative i.v. dose 35 µg/kg,10.6±5.9%
same,CO Percent Change from Control,cumulative i.v. dose 75 µg/kg,13.4±8.5%
same,CF Percent Change from Control,cumulative i.v. dose 5 µg/kg,4.3±2.7%
same,CF Percent Change from Control,cumulative i.v. dose 15 µg/kg,11.8±3.3%
same,CF Percent Change from Control,cumulative i.v. dose 35 µg/kg,29.5±5.2%
same,CF Percent Change from Control,cumulative i.v. dose 75 µg/kg,59.5±7.2%
same,CF ED40 (µg/kg) with 95% F.L.,,42.3 (33.5 - 56.7) µg/kg
same,HR Percent Change from Control,cumulative i.v. dose 5 µg/kg,-0.7±0.8%
same,HR Percent Change from Control,cumulative i.v. dose 15 µg/kg,1.2±0.8%
same,HR Percent Change from Control,cumulative i.v. dose 35 µg/kg,4.5±1.0%
same,HR Percent Change from Control,cumulative i.v. dose 75 µg/kg,10.6±3.7%
same,LVEDP Percent Change from Control,cumulative i.v. dose 5 µg/kg,-3.4±3.6%
same,LVEDP Percent Change from Control,cumulative i.v. dose 15 µg/kg,-4.9±4.8%
same,LVEDP Percent Change from Control,cumulative i.v. dose 35 µg/kg,-7.4±5.7%
same,LVEDP Percent Change from Control,cumulative i.v. dose 75 µg/kg,-11.2±7.1%
same,MAP Percent Change from Control,cumulative i.v. dose 5 µg/kg,-1.4±1.1%
same,MAP Percent Change from Control,cumulative i.v. dose 15 µg/kg,-1.8±1.7%
same,MAP Percent Change from Control,cumulative i.v. dose 35 µg/kg,-2.2±2.2%
same,MAP Percent Change from Control,cumulative i.v. dose 75 µg/kg,-3.8±2.8%
same,dP/dtmax Percent Change from Control,cumulative i.v. dose 5 µg/kg,2.8±1.0%
same,dP/dtmax Percent Change from Control,cumulative i.v. dose 15 µg/kg,7.3±1.8%
same,dP/dtmax Percent Change from Control,cumulative i.v. dose 35 µg/kg,18.9±3.6%
same,dP/dtmax Percent Change from Control,cumulative i.v. dose 75 µg/kg,37.0±6.4%
same,RAP Percent Change from Control,cumulative i.v. dose 5 µg/kg,-10.6±8.5%
same,RAP Percent Change from Control,cumulative i.v. dose 15 µg/kg,-5.8±9.7%
same,RAP Percent Change from Control,cumulative i.v. dose 35 µg/kg,-4.2±8.4%
same,RAP Percent Change from Control,cumulative i.v. dose 75 µg/kg,-21.7±13.3%
same,SV Percent Change from Control,cumulative i.v. dose 5 µg/kg,2.5±0.7%
same,SV Percent Change from Control,cumulative i.v. dose 15 µg/kg,4.0±2.4%
same,SV Percent Change from Control,cumulative i.v. dose 35 µg/kg,6.8±6.1%
same,SV Percent Change from Control,cumulative i.v. dose 75 µg/kg,6.1±9.1%
same,SW Percent Change from Control,cumulative i.v. dose 5 µg/kg,0.7±1.3%
same,SW Percent Change from Control,cumulative i.v. dose 15 µg/kg,1.7±3.5%
same,SW Percent Change from Control,cumulative i.v. dose 35 µg/kg,4.4±7.3%
same,SW Percent Change from Control,cumulative i.v. dose 75 µg/kg,1.9±9.9%
same,TPR Percent Change from Control,cumulative i.v. dose 5 µg/kg,-3.6±0.7%
same,TPR Percent Change from Control,cumulative i.v. dose 15 µg/kg,-6.6±1.7%
same,TPR Percent Change from Control,cumulative i.v. dose 35 µg/kg,-11.3±3.7%
same,TPR Percent Change from Control,cumulative i.v. dose 75 µg/kg,-14.4±5.3%
"CC1CC(=O)NN=C1c1ccc2c(c1)OCC(=O)N2 (single isomer, unassigned; isomer 6) [(-) isomer, 6-(3,4-dihydro-3-oxo-l,4(2H)-benzoxazin-7-yl)-2,3,4,5-tetrahydro-5-methyl-pyridazin-3-one]","Potency Difference (-vs+), In vivo inotropic ED40, i.v.",(-) isomer versus (+) isomer,7 x
same,"In vivo inotropic ED40, i.v.",,0.0057 mg/kg
same,CO Percent Change from Control,cumulative i.v. dose 5 µg/kg,2.9±0.5%
same,CO Percent Change from Control,cumulative i.v. dose 15 µg/kg,0.8±1.9%
same,CO Percent Change from Control,cumulative i.v. dose 35 µg/kg,-3.4±2.4%
same,CF Percent Change from Control,cumulative i.v. dose 5 µg/kg,28.3±4.4%
same,CF Percent Change from Control,cumulative i.v. dose 15 µg/kg,119.9±18.8%
same,CF Percent Change from Control,cumulative i.v. dose 35 µg/kg,187.2±28.9%
same,CF ED40 (µg/kg) with 95% F.L.,,5.7 (2.9 - 8.3) µg/kg
same,HR Percent Change from Control,cumulative i.v. dose 5 µg/kg,-3.1±0.5%
same,HR Percent Change from Control,cumulative i.v. dose 15 µg/kg,10.5±1.2%
same,HR Percent Change from Control,cumulative i.v. dose 35 µg/kg,17.1±3.6%
same,LVEDP Percent Change from Control,cumulative i.v. dose 5 µg/kg,-10.6±4.4%
same,LVEDP Percent Change from Control,cumulative i.v. dose 15 µg/kg,-20.7±5.1%
same,LVEDP Percent Change from Control,cumulative i.v. dose 35 µg/kg,-25.1±8.0%
same,MAP Percent Change from Control,cumulative i.v. dose 5 µg/kg,-7.4±3.4%
same,MAP Percent Change from Control,cumulative i.v. dose 15 µg/kg,-12.8±4.5%
same,MAP Percent Change from Control,cumulative i.v. dose 35 µg/kg,-18.7±4.3%
same,dP/dtmax Percent Change from Control,cumulative i.v. dose 5 µg/kg,11.7±5.6%
same,dP/dtmax Percent Change from Control,cumulative i.v. dose 15 µg/kg,41.6±12.3%
same,dP/dtmax Percent Change from Control,cumulative i.v. dose 35 µg/kg,58.0±14.5%
same,RAP Percent Change from Control,cumulative i.v. dose 5 µg/kg,3.8±11.4%
same,RAP Percent Change from Control,cumulative i.v. dose 15 µg/kg,-0.9±16.4%
same,RAP Percent Change from Control,cumulative i.v. dose 35 µg/kg,-1.4±16.0%
same,SV Percent Change from Control,cumulative i.v. dose 5 µg/kg,0.06±0.9%
same,SV Percent Change from Control,cumulative i.v. dose 15 µg/kg,-8.4±1.8%
same,SV Percent Change from Control,cumulative i.v. dose 35 µg/kg,-15.2±4.0%
same,SW Percent Change from Control,cumulative i.v. dose 5 µg/kg,-7.8±4.2%
same,SW Percent Change from Control,cumulative i.v. dose 15 µg/kg,-19.8±6.3%
same,SW Percent Change from Control,cumulative i.v. dose 35 µg/kg,-29.7±7.7%
same,TPR Percent Change from Control,cumulative i.v. dose 5 µg/kg,-10.2±5.2%
same,TPR Percent Change from Control,cumulative i.v. dose 15 µg/kg,-12.8±7.5%
same,TPR Percent Change from Control,cumulative i.v. dose 35 µg/kg,-14.9±5.1%
